test system: J774; assay: Inhibitory activity against nitric oxide production in lipopolysaccharide (LPS)-activated macrophage -like J774.1 cell; assay type: functional, cell-based, Mus musculus; conditions: Mus musculus, J774

Going from CC(=O)O[C@H]1[C@@H](OC(C)=O)C(C)(C)C2C[C@@H](OC(C)=O)[C@@]3(O)C(=O)[C@@](C)(C=O)C[C@@H](OC(=O)c4ccccc4)C3[C@@]2(CO)[C@H]1OC(=O)c1ccccc1 (stereo partly drawn) to C=C[C@@]1(C)C[C@@H](OC(=O)c2ccccc2)C2[C@]3(CO)C(C[C@@H](OC(C)=O)[C@@]2(O)C1=O)C(C)(C)[C@H](OC(C)=O)[C@H](OC(C)=O)[C@@H]3OC(=O)c1ccccc1 (stereo partly drawn), the IC50 falls from 23 µM to 10.8 µM (2.1-fold).

C=C[C@@]1(C)C[C@@H](OC(=O)c2ccccc2)C2[C@]3(CO)C(C[C@@H](OC(C)=O)[C@@]2(O)C1=O)C(C)(C)[C@H](OC(C)=O)[C@H](O)[C@@H]3OC(=O)c1ccccc1 (stereo partly drawn) and C=C[C@@]1(C)C[C@@H](OC(=O)c2ccccc2)C2[C@]3(CO)C(C[C@@H](O)[C@@]2(O)C1=O)C(C)(C)[C@H](OC(C)=O)[C@H](OC(C)=O)[C@@H]3OC(=O)c1ccccc1 (stereo partly drawn) are within 1.5-fold of each other in IC50: 22.9 µM for the first, 17.3 µM for the second.

Compared with C[C@@H]1C[C@H]2[C@@H]3CCC4=CC(=O)C=C[C@]4(C)[C@@]3(F)[C@@H](O)C[C@]2(C)[C@@]1(O)C(=O)CO [DEXAMETHASONE], C=C[C@@]1(C)C[C@@H](OC(=O)c2ccccc2)C2[C@]3(COC(C)=O)C(C[C@@H](O)[C@@]2(O)C1=O)C(C)(C)[C@H](OC(C)=O)[C@H](OC(C)=O)[C@@H]3OC(=O)c1ccccc1 (stereo partly drawn) is 3.7-fold lower in IC50: 170 µM for the first, 46.5 µM for the second. The second is the more potent here.

CNC(=N)NCCC[C@H](N)C(=O)O [TILARGININE] was tested, and the IC50 was 26 µM.

same assay, conditions: j774

In the case of POLYMYXIN B, the IC50 is reported as 27.8 µM.
